# Laboratory results from patent US20050282781A1, “Compositions of stable bioactive metabolites of docosahexaenoic (DHA) and eicosapentaenoic (EPA) acids” (priority 2004, published 2005).
# Marks after values point to notes of the source that are not given here.
# Tests used:
# open-field test in rats = experiment: Open-field test (anxiogenic test model); format: in vivo, rat; set-up: Immobility: unit not given here
# Experimental: This was determined according to a previously described method (Bhattacharya et al. 1998).
# MDMA (5 and 10 mg/Kg, i.p.) produced a dose-related decrease in the number of squares crossed and rears, with concomitant immobility and increased defecation; these effects are qualitatively similar to those induced by yohimbine (2 mg/Kg, i.p. in 0.9% saline as the vehicle). DBPs (1 and 2, 1:1 mixture 10 mg/Kg, p.o. day-1, for 7 days) were administered prior to MDMA or yohimbine administration, on the 7th day, 1 hour after the last DBPs administration (p.o.). Similar anti-anxiogenic effects were observed on pretreatment of MDMA, followed by DBPs.
# [1] = L-DOPA-sparing by singlet oxygen quenching (Rose Bengal plates); format: biochemical; settings: for Percent inhibition of L-DOPA oxidation (mean ± SEM): 30 min exposure to 1O2, Pi buffer pH 7.2
# Description: A comparative study of the antioxidant defence provided by the three compounds, DBPs, EPA and DHA, was made. The reason for selection of this test (antioxidant-profile) is, that, agents that can regulate systemic production and interactions of reactive oxygen species, like singlet oxygen, superoxide radical and hydroxyl radical, can provide surveillance umbrella to living organisms against ‘oxidative stress’.
# The singlet oxygen was generated on Rose Bengal-coated glass plates by illuminating with a 150-W spot-light at a distance of 30 cm, through water to filter infra-red light (Ghosal, S. and Bhattacharya, S. K. (1996). Antioxidant defence by shilajit, Indian J. Chem., 35B, 127-132).
# mice = experiment: Forced swimming immobility (behavioral despair), anti-stress; format: in vivo; settings: in these doses (50 mg/Kg p.o. × 4 days); statistically insignificant
# Experimental: Rodents when forced to swim in a restricted place, from which they cannot escape, become immobile after an initial period of vigorous activity. The observed immobility signified behavioral despair, resembling a state of mental depression. Behavioral depression is a common consequence of stress. The significant anti-stress effects of DBPs (1 and 2, Scheme-II), was assessed by the considerable reduction in the period of immobility in the test compound treated mice.
# active learning in rats = experiment: Active learning (learning acquisition), number of trials to reach criterion; format: in vivo, rat; settings: p.o. once daily 45 min before trial for 4 days, mean ± SEM
# Description: In the learning acquisition paradigm, in the control group, the number of shocked and unshocked trials required to reach the criterion of 10 correct conditional responses, were 14.33 and 43.70, respectively.
# [2] = system: CS-induced alteration of adrenal gland ascorbic acid and corticosterone concentrations and plasma corticosterone level; experiment: Chronic stress induced alteration of adrenal ascorbic acid, adrenal corticosterone and plasma corticosterone; format: in vivo, albino rats
# Experimental: The study is also relevant in view of the projected links of EPA and DHA to mental development in children which is severely retarded by chronic stress. Rats were randomly assigned to control or stress groups. Those assigned to the stress groups were subjected to 1 hour foot-shock, through a grid floor, every day for 14 days. […] Control animals received only the vehicle in either unstressed or the stressed rats for the same period in a volume of 2 ml/Kg, p.o. […] CS caused marked depletion of adrenal gland ascorbic acid and corticosterone concentrations with concomitant increase in plasma corticosterone levels. […] They had no per se effect on the indices of stress investigated (Table 3).
# [3] = Oral EPA or DHA to albino rats, blood levels of DBPs and benzoic acid by HPLC and GC-MS; format: in vivo
# Experimental: Oral administration of EPA to albino rats and tracking the blood level of DBPs by HPLC were conducted. […] Cells and plasma were separated by centrifugation and extracted separately with methanol before (BH) and after acidic (HCl) hydrolysis (AH). These extracts were subjected to HPLC, when DBPs (3-hydroxy- and 3,8-dihydroxydibenzo-α-pyrones) so formed were tracked and estimated. FIGS. 2A and 2B show the turnover of EPA into 3,8-dihydroxydibenzo-α-pyrone.
# Blood samples (2.5 ml) were collected from albino rats (200-220 grams, b.w.) by retro-orbital puncture, in heparinized tubes and centrifuged (3000 rpm) for 5 min. The supernatant (plasma, 0.4 ml) was collected and extracted with methanol (5 ml×3), at 60° C. by sonication for 10 min each. The combined methanolic extract was filtered and evaporated in vacuo. The residue so obtained was subjected to HPLC and GC-MS (as TMS derivatives) analyses. The presence of both 3-hydroxy-(str. 1, Scheme-II) and 3,8-dihydroxy-dibenzo-α-pyrone (str. 2, Scheme-II) was detected. Thus, the two DBPs are the normal metabolites of the albino rats. Their normal concentrations (control value) in the experimental rat blood were estimated at 0.170±0.052 μg/ml (str. 1, Scheme-II) and 0.100±0.023 μg/ml (str. 2, Scheme-II).
# In the EPA treatment experiment to the above animals, EPA (25 mg, in propylene glycol, 0.5 ml) per rat was fed through the oral route. […]
# [4] = system: increased 5-HT release activity in MDMA-treated rats; experiment: MDMA-withdrawal increased 5-HT release; format: in vivo, rat; settings: post-treatment in MDMA-treated rats
# Description: EPA or DHA would not be truly effective for this purpose. There is evidence that presynaptic serotonergic, but not dopaminergic, mechanisms are involved in the enactogen-like discriminative stimulus properties of MDMA. MDMA increases the number of rat brain 5-hydroxytryptamine 5-HT1A receptors and induces increased release of 5-HT from presynaptic terminals. The MDMA-withdrawal syndrome includes this increased 5-HT release activity in rats.
# [5] = 10 mg/Kg p.o. for 7 days, prior to MDMA or yohimbine administration
# [6] = 5 mg/Kg p.o. for 14 days + chronic stress
# [7] = 5 mg/Kg p.o., unstressed rats (per se effect)
# [8] = 10 mg/Kg p.o. for 14 days + chronic stress
# [9] = 10 mg/Kg p.o., unstressed rats (per se effect)
smiles,measurement,setting,value
"CC/C=C\C/C=C\C/C=C\C/C=C\C/C=C\CCCC(=O)O [EPA, cis-5,8,11,14,17-Eicosapentaenoic acid]",Faecal pellets,open-field test in rats; [5],6.8 ± 3.0
same,Immobility,open-field test in rats; [5],70.1 ± 5.3
same,Rears,open-field test in rats; [5],12.2 ± 4.8
same,Squares crossed,open-field test in rats; [5],116.5 ± 9.9
same,reversal of the anxiety-inducing potential of MDMA,open-field test in rats; Table 5 model,only weak reversal effect
same,antioxidant effect (1O2 quenching),[1]; 0.1-0.4 mM,only weak antioxidant effect
same,Percent inhibition of L-DOPA oxidation (mean ± SEM),[1]; L-DOPA:test compound 1:0.1 mM,7.7 ± 1.3%
same,Percent inhibition of L-DOPA oxidation (mean ± SEM),[1]; L-DOPA:test compound 1:0.4 mM,11.3 ± 3.2%
same,anti-stress response,mice,very weak anti-stress response
same,"Number of trials to reach criterion, Shocked trials",active learning in rats; dose 2.5 mg/ml,13.82 ± 1.04
same,"Number of trials to reach criterion, Unshocked trials",active learning in rats; dose 2.5 mg/ml,40.11 ± 1.88
same,"Number of trials to reach criterion, Shocked trials",active learning in rats; dose 5.0 mg/ml,12.11 ± 2.01
same,"Number of trials to reach criterion, Unshocked trials",active learning in rats; dose 5.0 mg/ml,38.14 ± 1.92
same,Adrenal ascorbic acid,[2]; [6],138.5 ± 18.2 μg/100 mg
same,Adrenal corticosterone,[2]; [6],3.0 ± 1.4 μg/100 mg
same,Plasma corticosterone,[2]; [6],17.9 ± 0.9^b μg/dL
same,Adrenal ascorbic acid,[2]; [7],308.8 ± 28.7 μg/100 mg
same,Adrenal corticosterone,[2]; [7],5.7 ± 1.4 μg/100 mg
same,Plasma corticosterone,[2]; [7],15.0 ± 1.6 µg/dL
same,Adrenal ascorbic acid,[2]; [8],144.2 ± 14.7^b μg/100 mg
same,Adrenal corticosterone,[2]; [8],2.9 ± 0.7^b μg/100 mg
same,Plasma corticosterone,[2]; [8],18.3 ± 1.8^b μg/dL
same,Adrenal ascorbic acid,[2]; [9],310.5 ± 26.0 μg/100 mg
same,Adrenal corticosterone,[2]; [9],5.2 ± 0.8 μg/100 mg
same,Plasma corticosterone,[2]; [9],15.5 ± 1.1 µg/dL
same,"blood level of 3,8-(OH)2-DBP (2) versus control",[3]; after 24 h of EPA treatment,higher than that of the control
same,"blood level of 3,8-(OH)2-DBP (2) versus control",[3]; after 72 h of EPA treatment,came down to control level
same,prevention of MDMA-withdrawal increased 5-HT release,[4],not
